Experimental data taken from patent US4442044A, “Process for preparing monoesters and diesters of N-alkyl substituted amino methyl phosphonic acid” (priority 1983, dated 1984).

How the values were obtained:
Type in all cases: in vivo
Johnsongrass [1] = assay: pre-emergent herbicidal activity, soil incorporation; conditions: Table III, 2 WAT, 11.2 kg/h
Description: (§1) A good grade of top soil is placed in aluminum pans and compacted to a depth of 0.95 to 1.27 cm. from the top of each pan. A predetermined number of seeds or vegetative propagules of each of several plant species are placed on top of the soil in each pan and then pressed down. Herbicidal compositions prepared as in the previous example are applied by admixture with or incorporation in the top layer of soil.
(§2) In this method, the soil required to cover the seeds and propagules is weighed and admixed with a herbicidal composition containing a known amount of the active ingredient (compound of this invention). The pans are then filled with the admixture and leveled. Watering is carried out by permitting the soil in the pans to absorb moisture through apertures in the pan bottoms. The seed and propagule containing pans are placed on a wet sand bench and maintained for approximately two weeks under ordinary conditions of sunlight and watering. At the end of this period, the number of emerged plants of each species is noted and compared to an untreated control.
(§3) The pre-emergent herbicidal activity index used below is based upon average percent control of each species as follows: […]

Smartweed [2] = assay: as above; conditions: Table III, 2 WAT, 11.2 kg/h
Description: as §1, §2, §3

Morningglory [3] = assay: as above; conditions: Table III, 2 WAT, 11.2 kg/h
Description: as §1, §2, §3

Barnyardgrass [4] = assay: as above; conditions: Table III, 2 WAT, 11.2 kg/h
Description: as §1, §2, §3

Quackgrass [5] = assay: as above; conditions: Table III, 2 WAT, 11.2 kg/h
Description: as §1, §2, §3

Lambsquarters [6] = assay: as above; conditions: Table III, 2 WAT, 11.2 kg/h
Description: as §1, §2, §3

Downy Brome [7] = assay: as above; conditions: Table III, 2 WAT, 11.2 kg/h
Description: as §1, §2, §3

Canada Thistle [8] = assay: as above; conditions: Table III, 2 WAT, 11.2 kg/h
Description: as §1, §2, §3

Velvetleaf [9] = assay: as above; conditions: Table III, 2 WAT, 11.2 kg/h
Description: as §1, §2, §3

Cocklebur [10] = assay: as above; conditions: Table III, 2 WAT, 11.2 kg/h
Description: as §1, §2, §3

Yellow Nutsedge [11] = assay: as above; conditions: Table III, 2 WAT, 11.2 kg/h
Description: as §1, §2, §3

Johnsongrass [12] = assay: post-emergent herbicidal activity, greenhouse; conditions: Table I, 4 WAT
How it was run: (§4)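 Post-emergence foliar spray at tabulated application rates, using aliquots of a 1.0% stock in acetone, THF or water plus ~0.4% emulsifier, applied to 2–3-week-old greenhouse plants. Plant injury was rated relative to controls roughly two and four weeks after treatment.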

Soybean = assay: post-emergent herbicidal activity, greenhouse; conditions: Table II
How it was run: as §4

Smartweed [13] = assay: post-emergent herbicidal activity, greenhouse
How it was run: as §4

Morningglory [14] = assay: post-emergent herbicidal activity, greenhouse
How it was run: as §4

Barnyardgrass [15] = assay: post-emergent herbicidal activity, greenhouse
How it was run: as §4

Wheat = assay: post-emergent herbicidal activity, greenhouse; conditions: Table II
How it was run: as §4

Hemp Sesbania = assay: post-emergent herbicidal activity, greenhouse; conditions: Table II
How it was run: as §4

Wild Buckwheat = assay: post-emergent herbicidal activity, greenhouse; conditions: Table II
How it was run: as §4

Quackgrass [16] = assay: post-emergent herbicidal activity, greenhouse; conditions: Table I, 4 WAT
How it was run: as §4

Lambsquarters [17] = assay: post-emergent herbicidal activity, greenhouse
How it was run: as §4

Downy Brome [18] = assay: post-emergent herbicidal activity, greenhouse
How it was run: as §4

Sorghum = assay: post-emergent herbicidal activity, greenhouse; conditions: Table II
How it was run: as §4

Rice = assay: post-emergent herbicidal activity, greenhouse; conditions: Table II
How it was run: as §4

Panicum Spp = assay: post-emergent herbicidal activity, greenhouse; conditions: Table II
How it was run: as §4

Canada Thistle [19] = assay: post-emergent herbicidal activity, greenhouse; conditions: Table I, 4 WAT
How it was run: as §4

Velvetleaf [20] = assay: post-emergent herbicidal activity, greenhouse
How it was run: as §4

Sugar Beet = assay: post-emergent herbicidal activity, greenhouse; conditions: Table II
How it was run: as §4

Cocklebur [21] = assay: post-emergent herbicidal activity, greenhouse
How it was run: as §4

Yellow Nutsedge [22] = assay: post-emergent herbicidal activity, greenhouse; conditions: Table I, 4 WAT
How it was run: as §4

[23] = 2** WAT, 0.056 kg/h, applied in 100 GPA THF
[24] = Table II, 2** WAT, 0.056 kg/h, applied in 100 GPA THF

With CCOC(=O)CNCP(=O)(O)OC(C#N)CC (stereo not drawn) [Example 8, glycine, N-[[(1-cyanopropoxy)hydroxyphosphinyl]methyl],ethyl ester] the “pre-emergent herbicidal activity index” value (Johnsongrass [1]) was 2 (50-74% control), the “pre-emergent herbicidal activity index” value (Smartweed [2]) was 0 (1-24% control) and the “pre-emergent herbicidal activity index” value (Morningglory [3]) was 0 (1-24% control). The “pre-emergent herbicidal activity index” value (Barnyardgrass [4]) was 0 (1-24% control), the “pre-emergent herbicidal activity index” value (Quackgrass [5]) was 2 (50-74% control) and the “pre-emergent herbicidal activity index” value (Lambsquarters [6]) was 0 (1-24% control). For the same molecule, the “pre-emergent herbicidal activity index” value (Downy Brome [7]) was 0 (1-24% control), the “pre-emergent herbicidal activity index” value (Canada Thistle [8]) was 3 (75-100% control) and the “pre-emergent herbicidal activity index” value (Velvetleaf [9]) was 0 (1-24% control). For the same molecule, the “pre-emergent herbicidal activity index” value (Cocklebur [10]) was 0 (1-24% control), the “pre-emergent herbicidal activity index” value (Yellow Nutsedge [11]) was 1 (25-49% control) and the “post-emergent herbicidal activity index” value (Johnsongrass [12]; 5.6 kg/h) was 3 (75-99% control). The “post-emergent herbicidal activity index” value (Johnsongrass [12]; 11.2 kg/h) was 4 (100% control), the “post-emergent herbicidal activity index” value (Soybean; [23]) was 0 (0-24% control) and the “post-emergent herbicidal activity index” value (Soybean; 4 WAT, 1.12 kg/h) was 3 (75-99% control). For the same molecule, the “post-emergent herbicidal activity index” value (Soybean; 4 WAT, 5.6 kg/h) was 4 (100% control), the “post-emergent herbicidal activity index” value (Smartweed [13]; Table I, 4 WAT, 5.6 kg/h) was 4 (100% control) and the “post-emergent herbicidal activity index” value (Smartweed [13]; Table I, 4 WAT, 11.2 kg/h) was 4 (100% control). The “post-emergent herbicidal activity index” value (Smartweed [13]; [24]) was 0 (0-24% control), the “post-emergent herbicidal activity index” value (Smartweed [13]; Table II, 4 WAT, 1.12 kg/h) was 3 (75-99% control) and the “post-emergent herbicidal activity index” value (Smartweed [13]; Table II, 4 WAT, 5.6 kg/h) was 4 (100% control). The “post-emergent herbicidal activity index” value (Morningglory [14]; Table I, 4 WAT, 5.6 kg/h) was 2 (50-74% control), the “post-emergent herbicidal activity index” value (Morningglory [14]; Table I, 4 WAT, 11.2 kg/h) was 3 (75-99% control) and the “post-emergent herbicidal activity index” value (Morningglory [14]; [24]) was 0 (0-24% control). The “post-emergent herbicidal activity index” value (Morningglory [14]; Table II, 4 WAT, 1.12 kg/h) was 3 (75-99% control), the “post-emergent herbicidal activity index” value (Morningglory [14]; Table II, 4 WAT, 5.6 kg/h) was 3 (75-99% control) and the “post-emergent herbicidal activity index” value (Barnyardgrass [15]; Table I, 4 WAT, 5.6 kg/h) was 3 (75-99% control). The “post-emergent herbicidal activity index” value (Barnyardgrass [15]; Table I, 4 WAT, 11.2 kg/h) was 4 (100% control), the “post-emergent herbicidal activity index” value (Barnyardgrass [15]; [24]) was 1 (25-49% control) and the “post-emergent herbicidal activity index” value (Barnyardgrass [15]; Table II, 4 WAT, 1.12 kg/h) was 4 (100% control). The “post-emergent herbicidal activity index” value (Barnyardgrass [15]; Table II, 4 WAT, 5.6 kg/h) was 4 (100% control), the “post-emergent herbicidal activity index” value (Wheat; [23]) was 1 (25-49% control) and the “post-emergent herbicidal activity index” value (Wheat; 4 WAT, 1.12 kg/h) was 4 (100% control). For the same molecule, the “post-emergent herbicidal activity index” value (Wheat; 4 WAT, 5.6 kg/h) was 4 (100% control), the “post-emergent herbicidal activity index” value (Hemp Sesbania; [23]) was 0 (0-24% control) and the “post-emergent herbicidal activity index” value (Hemp Sesbania; 4 WAT, 1.12 kg/h) was 2 (50-74% control). For the same molecule, the “post-emergent herbicidal activity index” value (Hemp Sesbania; 4 WAT, 5.6 kg/h) was 4 (100% control), the “post-emergent herbicidal activity index” value (Wild Buckwheat; [23]) was 0 (0-24% control) and the “post-emergent herbicidal activity index” value (Wild Buckwheat; 4 WAT, 1.12 kg/h) was 3 (75-99% control). The “post-emergent herbicidal activity index” value (Wild Buckwheat; 4 WAT, 5.6 kg/h) was 4 (100% control), the “post-emergent herbicidal activity index” value (Quackgrass [16]; 5.6 kg/h) was 4 (100% control) and the “post-emergent herbicidal activity index” value (Quackgrass [16]; 11.2 kg/h) was 4 (100% control). For the same molecule, the “post-emergent herbicidal activity index” value (Lambsquarters [17]; Table I, 4 WAT, 5.6 kg/h) was 4 (100% control), the “post-emergent herbicidal activity index” value (Lambsquarters [17]; Table I, 4 WAT, 11.2 kg/h) was 4 (100% control) and the “post-emergent herbicidal activity index” value (Lambsquarters [17]; [24]) was 0 (0-24% control). For the same molecule, the “post-emergent herbicidal activity index” value (Lambsquarters [17]; Table II, 4 WAT, 1.12 kg/h) was 3 (75-99% control), the “post-emergent herbicidal activity index” value (Lambsquarters [17]; Table II, 4 WAT, 5.6 kg/h) was 4 (100% control) and the “post-emergent herbicidal activity index” value (Downy Brome [18]; Table I, 4 WAT, 5.6 kg/h) was 3 (75-99% control). For the same molecule, the “post-emergent herbicidal activity index” value (Downy Brome [18]; Table I, 4 WAT, 11.2 kg/h) was 4 (100% control), the “post-emergent herbicidal activity index” value (Downy Brome [18]; [24]) was 0 (0-24% control) and the “post-emergent herbicidal activity index” value (Downy Brome [18]; Table II, 4 WAT, 1.12 kg/h) was 3 (75-99% control). For the same molecule, the “post-emergent herbicidal activity index” value (Downy Brome [18]; Table II, 4 WAT, 5.6 kg/h) was 3 (75-99% control), the “post-emergent herbicidal activity index” value (Sorghum; [23]) was 0 (0-24% control) and the “post-emergent herbicidal activity index” value (Sorghum; 4 WAT, 1.12 kg/h) was 4 (100% control). For the same molecule, the “post-emergent herbicidal activity index” value (Sorghum; 4 WAT, 5.6 kg/h) was 4 (100% control), the “post-emergent herbicidal activity index” value (Rice; [23]) was 0 (0-24% control) and the “post-emergent herbicidal activity index” value (Rice; 4 WAT, 1.12 kg/h) was 3 (75-99% control). The “post-emergent herbicidal activity index” value (Rice; 4 WAT, 5.6 kg/h) was 4 (100% control), the “post-emergent herbicidal activity index” value (Panicum Spp; [23]) was 0 (0-24% control) and the “post-emergent herbicidal activity index” value (Panicum Spp; 4 WAT, 1.12 kg/h) was 4 (100% control). The “post-emergent herbicidal activity index” value (Panicum Spp; 4 WAT, 5.6 kg/h) was 4 (100% control), the “post-emergent herbicidal activity index” value (Canada Thistle [19]; 5.6 kg/h) was 4 (100% control) and the “post-emergent herbicidal activity index” value (Canada Thistle [19]; 11.2 kg/h) was 4 (100% control). The “post-emergent herbicidal activity index” value (Velvetleaf [20]; Table I, 4 WAT, 5.6 kg/h) was 3 (75-99% control), the “post-emergent herbicidal activity index” value (Velvetleaf [20]; Table I, 4 WAT, 11.2 kg/h) was 4 (100% control) and the “post-emergent herbicidal activity index” value (Velvetleaf [20]; [24]) was 0 (0-24% control). The “post-emergent herbicidal activity index” value (Velvetleaf [20]; Table II, 4 WAT, 1.12 kg/h) was 3 (75-99% control), the “post-emergent herbicidal activity index” value (Velvetleaf [20]; Table II, 4 WAT, 5.6 kg/h) was 3 (75-99% control) and the “post-emergent herbicidal activity index” value (Sugar Beet; [23]) was 0 (0-24% control). The “post-emergent herbicidal activity index” value (Sugar Beet; 4 WAT, 1.12 kg/h) was 4 (100% control), the “post-emergent herbicidal activity index” value (Sugar Beet; 4 WAT, 5.6 kg/h) was 4 (100% control) and the “post-emergent herbicidal activity index” value (Cocklebur [21]; Table I, 4 WAT, 5.6 kg/h) was 3 (75-99% control). For the same molecule, the “post-emergent herbicidal activity index” value (Cocklebur [21]; Table I, 4 WAT, 11.2 kg/h) was 4 (100% control), the “post-emergent herbicidal activity index” value (Cocklebur [21]; [24]) was 0 (0-24% control) and the “post-emergent herbicidal activity index” value (Cocklebur [21]; Table II, 4 WAT, 1.12 kg/h) was 3 (75-99% control). The “post-emergent herbicidal activity index” value (Cocklebur [21]; Table II, 4 WAT, 5.6 kg/h) was 4 (100% control), the “post-emergent herbicidal activity index” value (Yellow Nutsedge [22]; 5.6 kg/h) was 3 (75-99% control) and the “post-emergent herbicidal activity index” value (Yellow Nutsedge [22]; 11.2 kg/h) was 4 (100% control).
